For orientation: solubility means the concentration that dissolves in the medium under given conditions.

Series [1] in a line: Thermodynamic solubility in PBS (pH 7.4). The class given is physicochemical. The note with it: for solubility thermodynamic at 24 h / solubility at 24 h: phosphate buffered saline; for solubility at 24 h: Table 1. From the text: Values in parentheses represent 95% confidence intervals. N.D., not determined.
Measurements represent duplicate or more replicates, with active peptides subjected to multiple replicates. ND: not determined. The peptide was non-toxic and soluble in cell culture medium at this concentration.

The test system of series [2] is endosomes of Jurkat lymphocytes. Description: Endosome disruption in Jurkat lymphocytes: release of carboxyfluorescein from disulfide probe Compound 2, flow cytometry. Particulars: for Efficacy (% of max. 1): % change in cellular fluorescence relative to maximal response of Compound 1 (100%); for Efficacy (% of 1): % of the effect of compound 1, calculated span of dose-response curve, ± standard deviation. In short, it runs like this: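 Human Jurkat cells treated with compounds plus disulfide probe Compound 2 (2.5 μM) for 14 h at 37 °C. Cytoplasmic release of pH-sensitive fluorophore Compound 3 quantified by flow cytometry. IC50 by non-linear regression; efficacy as % fluorescence change relative to Compound 1 maximum (100%).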

[3] abbreviates: pH 7.4, Table 1, PBS pH 7.4, 24 hours at 22° C., ±S.D., read-out: Solubility (aq.).
The mark [4] stands for this setting: pH 7.4, Table 3, PBS pH 7.4, 24 h at 22° C., read-out: Solubility.
[5] abbreviates: read-out: Toxicity, Table 3, IC50, Jurkat, 48 h at 37° C., footnote a: non-toxic and soluble in cell culture medium at this concentration.
[6] abbreviates: read-out: Potency (EC50), Table 1, Jurkat lymphocytes, probe Compound 2 (2.5 μM), 14 hours, 95% confidence interval in neighbouring cell.
Setting [7] is: read-out: Potency, Table 2, EC50 ± standard deviation, Jurkat lymphocytes, disulfide-linked fluorescent probe (2.5 μM), 14 h.
Where [8] appears, read: PBS pH 7.4, 24 hours at 22° C., ±S.D., read-out: Solubility (aq.).
The mark [9] stands for this setting: read-out: Toxicity (IC50), Table 1, Jurkat lymphocytes, 48 h at 37° C.

Values after ≈ are worked out from the molar mass of the structure shown. Read-outs that look alike come from different tables or passages of the source. Non-standard residues stand in square brackets, D forms with d. Residues, ends and D or L forms follow the SMILES beside them. *: point of attachment. Pentanoyl(5-NH-cholesteryl) = CC(C)CCC[C@@H](C)[C@H]1CC[C@H]2[C@@H]3CC=C4C[C@@H](NCCCCC(=O)*)CC[C@]4(C)[C@H]3CC[C@]12C; Cholesteryloxycarbonyl = CC(C)CCC[C@@H](C)[C@H]1CC[C@H]2[C@@H]3CC=C4C[C@@H](OC(=O)*)CC[C@]4(C)[C@H]3CC[C@]12C; Palmitoyl = CCCCCCCCCCCCCCCC(=O)*; PEG3 = NCCOCCOCCOCCC(=O)O; Pra = C#CC[C@H](N)C(=O)O; Aib = CC(C)(N)C(=O)O; Ava = NCCCCC(=O)O; βAla = NCCC(=O)O A value given as a limit tells only on which side of the number the result lay.

On to `C#CC[C@H](NC(=O)[C@H](CCC(=O)O)NC(=O)[C@H](CCC(=O)O)NC(=O)CCNC(=O)CCNC(=O)O[C@H]1CC[C@@]2(C)C(=CC[C@H]3[C@@H]4CC[C@H]([C@H](C)CCCC(C)C)[C@@]4(C)CC[C@@H]32)C1)C(=O)NCCOCCOCCOCCC(=O)NCCOCCOCCOCCC(=O)NC(C)(C)C(=O)NC(C)(C)C(=O)NC(C)(C)C(=O)NC(C)(C)C(=O)N[C@@H](Cc1c[nH]c2ccccc12)C(=O)N[C@@H](Cc1c[nH]c2ccccc12)C(=O)N[C@@H](C)C(=O)N[C@@H](Cc1ccc(O)cc1)C(=O)N[C@@H](Cc1ccc(O)cc1)C(=O)N1CCC[C@H]1C(=O)N1CCC[C@H]1C(=O)N[C@H](C(=O)N[C@H](C(N)=O)C(C)C)C(C)C` [Compound 37, R″ = BEEZOOUUUUWWAYYPPVV-CONH2] ({Cholesteryloxycarbonyl-βAla-βAla}-EE[Pra][PEG3][PEG3][Aib][Aib][Aib][Aib]WWAYYPPVV-NH2), for which, in series [1] (setting [3]), the solubility thermodynamic at 24 h stood at 348 ± 13 µM (≈ 986 µg/mL). This molecule displayed an IC50 in the series on Jurkat lymphocytes (48 h) of 3 µM. In series [2] (14 h), the EC50 worked out at 40 nM and the IC50 worked out at 40 nM.
For the molecule `CC(C)[C@H](NC(=O)[C@@H](NC(=O)[C@@H]1CCCN1C(=O)[C@@H]1CCCN1C(=O)[C@H](Cc1c[nH]c2ccccc12)NC(=O)[C@H](Cc1c[nH]c2ccccc12)NC(=O)[C@H](C)NC(=O)[C@H](Cc1ccc(O)cc1)NC(=O)[C@H](Cc1c[nH]c2ccccc12)NC(=O)C(C)(C)NC(=O)C(C)(C)NC(=O)C(C)(C)NC(=O)C(C)(C)N)C(C)C)C(N)=O` [Compound 53] (H-[Aib][Aib][Aib][Aib]WYAWWPPVV-NH2), the solubility thermodynamic at 24 h in series [1] (setting [4]) is 29 ± 3 µM (≈ 44.7 µg/mL). Besides, the IC50 with Jurkat lymphocytes (setting [5]) was more than 16 µM. The “Efficacy (% of max. 1)” value in series [2] (Table 1, Jurkat, 14 hours) is listed as 104%. Further, the “Efficacy (% of 1)” value in series [2] (Table 2, Jurkat, 14 h) is recorded as 96 ± 12%. Besides, the EC50 in series [2] (setting [6]) was 7100 nM; in series [2] (setting [7]), 6700 ± 800 nM.
Turning to `CCCCCCCCCCCCCCCC(=O)NCCCCC(=O)NCCC(=O)N[C@@H](CCC(=O)O)C(=O)N[C@@H](CCC(=O)O)C(=O)NCCOCCOCCOCCC(=O)NCCOCCOCCOCCC(=O)NC(C)(C)C(=O)NC(C)(C)C(=O)NC(C)(C)C(=O)NC(C)(C)C(=O)N[C@@H](Cc1c[nH]c2ccccc12)C(=O)N[C@@H](Cc1c[nH]c2ccccc12)C(=O)N[C@@H](C)C(=O)N[C@@H](Cc1ccc(O)cc1)C(=O)N[C@@H](Cc1c[nH]c2ccccc12)C(=O)N1CCC[C@H]1C(=O)N1CCC[C@H]1C(=O)N[C@H](C(=O)N[C@@H](C)C(N)=O)C(C)C` [Compound 32, R′ - BEEOOUUUUWWAYWPPVA-CONH2] ({Palmitoyl-Ava-βAla}-EE[PEG3][PEG3][Aib][Aib][Aib][Aib]WWAYWPPVA-NH2), the “Solubility in PBS relative to Compound 26” value in series [1] (PBS) is “sixtyfold more soluble”. In addition, the solubility at 24 h in series [1] (setting [8]) turned out to be 856 µM (≈ 2220 µg/mL). In addition, in the series on Jurkat lymphocytes (setting [9]), the IC50 is 16 µM. Moreover, in series [2] (Table 1, Jurkat, 14 hours), the “Efficacy (% of max. 1)” value was determined as 121%. In addition, in series [2] (palmitic acid derivative vs cholesterylamine), the “Potency relative to Compound 26” value is reported as “sevenfold less potent”. Also, the EC50 in series [2] (setting [6]) stood at 700 nM.
In the case of `C#CC[C@H](NC(=O)[C@H](CCC(=O)O)NC(=O)[C@H](CCC(=O)O)NC(=O)CCNC(=O)CCNC(=O)O[C@H]1CC[C@@]2(C)C(=CC[C@H]3[C@@H]4CC[C@H]([C@H](C)CCCC(C)C)[C@@]4(C)CC[C@@H]32)C1)C(=O)NCCOCCOCCOCCC(=O)NCCOCCOCCOCCC(=O)NC(C)(C)C(=O)NC(C)(C)C(=O)NC(C)(C)C(=O)NC(C)(C)C(=O)N[C@@H](Cc1ccc(O)cc1)C(=O)N[C@@H](Cc1ccc(O)cc1)C(=O)N[C@@H](C)C(=O)N[C@@H](Cc1ccc(O)cc1)C(=O)N[C@@H](Cc1ccc(O)cc1)C(=O)N1CCC[C@H]1C(=O)N1CCC[C@H]1C(=O)N[C@H](C(=O)N[C@H](C(N)=O)C(C)C)C(C)C` [Compound 38, R″ = BEEZOOUUUUYYAYYPPVV-CONH2] ({Cholesteryloxycarbonyl-βAla-βAla}-EE[Pra][PEG3][PEG3][Aib][Aib][Aib][Aib]YYAYYPPVV-NH2), the solubility thermodynamic at 24 h in series [1] (setting [3]) came out at 1060 ± 19 µM (≈ 2950 µg/mL). In addition, in the series on Jurkat lymphocytes (48 h), the IC50 was 8 µM. In series [2] (14 h), this molecule had an EC50 of 40 nM and an IC50 of 40 nM. For the same molecule, in series [2] (Jurkat, toxicity after 48 hours), the “Selectivity for disruption of endosomes over toxicity to cells in culture” value is “greater than hundredfold”.
Take `CC(C)CCC[C@@H](C)[C@H]1CC[C@H]2[C@@H]3CC=C4C[C@@H](OC(=O)NCCC(=O)NCCC(=O)N[C@@H](CCC(=O)O)C(=O)N[C@@H](CCC(=O)O)C(=O)NCCOCCOCCOCCC(=O)NCCOCCOCCOCCC(=O)NC(C)(C)C(=O)NC(C)(C)C(=O)NC(C)(C)C(=O)NC(C)(C)C(=O)N[C@@H](Cc5c[nH]c6ccccc56)C(=O)N[C@@H](Cc5c[nH]c6ccccc56)C(=O)N[C@@H](C)C(=O)N[C@@H](Cc5ccc(O)cc5)C(=O)N[C@@H](Cc5c[nH]c6ccccc56)C(=O)N5CCC[C@H]5C(=O)N5CCC[C@H]5C(=O)N[C@H](C(=O)N[C@@H](C)C(N)=O)C(C)C)CC[C@]4(C)[C@H]3CC[C@]12C` [Compound 34, R″ = BEEOOUUUUWWAYWPPVA-CONH2] ({Cholesteryloxycarbonyl-βAla-βAla}-EE[PEG3][PEG3][Aib][Aib][Aib][Aib]WWAYWPPVA-NH2): the solubility at 24 h in series [1] (setting [8]) turned out to be 405 µM (≈ 1110 µg/mL). In the series with Jurkat lymphocytes (48 h), this molecule returned an IC50 of 17 µM. The EC50 in series [2] (14 h) is 100 nM.
Take `CC(C)CCC[C@@H](C)[C@H]1CC[C@H]2[C@@H]3CC=C4C[C@@H](NCCCCC(=O)NCCC(=O)N[C@@H](CCC(=O)O)C(=O)N[C@@H](CCC(=O)O)C(=O)NCCOCCOCCOCCC(=O)NCCOCCOCCOCCC(=O)NC(C)(C)C(=O)NC(C)(C)C(=O)NC(C)(C)C(=O)NC(C)(C)C(=O)N[C@@H](Cc5ccc(O)cc5)C(=O)N[C@@H](Cc5ccc(O)cc5)C(=O)N[C@@H](C)C(=O)N[C@@H](Cc5ccc(O)cc5)C(=O)N[C@@H](Cc5ccc(O)cc5)C(=O)N5CCC[C@H]5C(=O)N5CCC[C@H]5C(=O)N[C@H](C(=O)N[C@H](C(N)=O)C(C)C)C(C)C)CC[C@]4(C)[C@H]3CC[C@]12C` [Compound 28, R = BEEOOUUUUYYAYYPPVV-CONH2] ({Pentanoyl(5-NH-cholesteryl)-βAla}-EE[PEG3][PEG3][Aib][Aib][Aib][Aib]YYAYYPPVV-NH2): the solubility thermodynamic at 24 h in series [1] (setting [3]) amounted to 63 ± 28 µM (≈ 169 µg/mL). Moreover, the IC50 with Jurkat lymphocytes (48 h) was 3 µM. In series [2] (14 h), this molecule showed an EC50 of 60 nM.
Turning to `CC(=O)NC(C)(C)C(=O)NC(C)(C)C(=O)NC(C)(C)C(=O)NC(C)(C)C(=O)N[C@@H](Cc1c[nH]c2ccccc12)C(=O)N[C@@H](Cc1c[nH]c2ccccc12)C(=O)N[C@@H](C)C(=O)N[C@@H](Cc1ccc(O)cc1)C(=O)N[C@@H](Cc1c[nH]c2ccccc12)C(=O)N1CCC[C@H]1C(=O)N1CCC[C@H]1C(=O)N[C@H](C(=O)N[C@@H](C)C(N)=O)C(C)C` [Compound 42] (Ac-[Aib][Aib][Aib][Aib]WWAYWPPVA-NH2), the solubility thermodynamic at 24 h in series [1] (setting [3]) is 11 ± 1 µM (≈ 17.1 µg/mL). In addition, in the series with Jurkat lymphocytes (setting [9]), the IC50 was more than 100 µM. Further, in series [2] (Table 1, Jurkat, 14 hours), the “Efficacy (% of max. 1)” value is listed as 85%. Moreover, the EC50 in series [2] (setting [6]) is 5300 nM.
`CC(C)[C@H](NC(=O)[C@@H](NC(=O)[C@@H]1CCCN1C(=O)[C@@H]1CCCN1C(=O)[C@H](Cc1ccc(O)cc1)NC(=O)[C@H](Cc1c[nH]c2ccccc12)NC(=O)[C@H](Cc1ccc(O)cc1)NC(=O)[C@H](Cc1c[nH]c2ccccc12)NC(=O)[C@H](C)NC(=O)[C@H](Cc1ccc(O)cc1)NC(=O)[C@H](Cc1c[nH]c2ccccc12)NC(=O)[C@H](C)NC(=O)C(C)(C)NC(=O)C(C)(C)NC(=O)C(C)(C)NC(=O)C(C)(C)N)C(C)C)C(N)=O` [Compound 81] (H-[Aib][Aib][Aib][Aib]AWYAWYWYPPVV-NH2): the solubility thermodynamic at 24 h in series [1] (setting [4]) came out at 3 ± 1 µM (≈ 5.82 µg/mL). Further, the IC50 in the series with Jurkat lymphocytes (setting [5]) is more than 8 µM. Further, in series [2] (Table 2, Jurkat, 14 h), the “Efficacy (% of 1)” value is given as 83 ± 13%. Besides, the EC50 in series [2] (setting [7]) came out at 9000 ± 6000 nM.
As for `CC(C)CCC[C@@H](C)[C@H]1CC[C@H]2[C@@H]3CC=C4C[C@@H](NCCCCC(=O)NCCC(=O)N[C@@H](CCC(=O)O)C(=O)N[C@@H](CCC(=O)O)C(=O)NCCOCCOCCOCCC(=O)NCCOCCOCCOCCC(=O)NC(C)(C)C(=O)NC(C)(C)C(=O)NC(C)(C)C(=O)NC(C)(C)C(=O)N[C@@H](Cc5ccc(O)cc5)C(=O)N[C@@H](Cc5ccc(O)cc5)C(=O)N[C@@H](Cc5ccc(O)cc5)C(=O)N[C@@H](Cc5ccc(O)cc5)C(=O)N[C@@H](Cc5ccc(O)cc5)C(=O)N5CCC[C@H]5C(=O)N5CCC[C@H]5C(=O)N[C@H](C(=O)N[C@H](C(N)=O)C(C)C)C(C)C)CC[C@]4(C)[C@H]3CC[C@]12C` [Compound 29, R = BEEOOUUUUYYYYYPPVV-CONH2] ({Pentanoyl(5-NH-cholesteryl)-βAla}-EE[PEG3][PEG3][Aib][Aib][Aib][Aib]YYYYYPPVV-NH2), the solubility thermodynamic at 24 h in series [1] (setting [3]) came out at 90 ± 2 µM (≈ 249 µg/mL). In the series with Jurkat lymphocytes (48 h), this molecule showed an IC50 of 3 µM. In series [2] (14 h), the EC50 worked out at 80 nM.
